These results are taken from PMC4444576, “Prospective performance evaluation of selected common virtual screening tools. Case study: Cyclooxygenase (COX) 1 and 2” (European Journal of Medicinal Chemistry, 2015).

The subject of data set [1] is COX. Conditions: cited from earlier work; for Activity: data from the literature.
Data set [2] deals with COX. On the set-up: method as in PMID 22053353. Conditions: read-out: IC50, oxidation of endocannabinoids; cited from earlier work.
For another data set, the system named is mice and rats. Set-up: method as in earlier work. Conditions: ref 1 (Supporting Information), cited from earlier work.
Data set [3] relates to COX. Put plainly: Biological testing for COX-inhibiting activity, overall outcome on both isoforms. The conditions noted are these: for COX isoform selectivity: COX-1 versus COX-2; for Activity: biological testing of this study. In kind it is biochemical.
Data set [4] concerns the target T1, ram seminal vesicle COX-1 (Ovis aries, UniProt P05979).
T1 construct: ram seminal vesicle COX-1 (1 U) (Sigma–Aldrich); purchased Sigma–Aldrich; host or cells: ram seminal vesicle (tissue of origin)
T1 sequence (P05979 25-600): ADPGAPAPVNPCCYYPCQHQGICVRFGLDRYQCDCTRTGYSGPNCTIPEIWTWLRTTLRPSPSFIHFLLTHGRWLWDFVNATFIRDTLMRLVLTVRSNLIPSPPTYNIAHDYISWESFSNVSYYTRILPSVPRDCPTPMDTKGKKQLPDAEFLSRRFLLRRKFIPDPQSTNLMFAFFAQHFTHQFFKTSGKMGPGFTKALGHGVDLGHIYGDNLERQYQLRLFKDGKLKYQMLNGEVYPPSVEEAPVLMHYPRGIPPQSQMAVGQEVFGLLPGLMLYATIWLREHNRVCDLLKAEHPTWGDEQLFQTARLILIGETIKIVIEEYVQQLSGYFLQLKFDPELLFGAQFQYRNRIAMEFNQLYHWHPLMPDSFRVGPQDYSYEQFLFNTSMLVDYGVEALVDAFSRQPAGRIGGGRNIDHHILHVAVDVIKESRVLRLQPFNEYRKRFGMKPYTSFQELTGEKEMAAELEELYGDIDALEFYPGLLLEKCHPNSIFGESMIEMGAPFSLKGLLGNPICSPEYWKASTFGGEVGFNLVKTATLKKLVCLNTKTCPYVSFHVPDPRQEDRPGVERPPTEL
Briefly: COX-1 inhibition assay (PGE2 EIA). In kind it is biochemical. The conditions noted are these: average of at least two independent experiments, triplicates; read-out: IC50 COX-1.

In the next data set the target is T2, human recombinant COX-2 (Homo sapiens, UniProt P35354).
T2 construct: purchased Sigma–Aldrich
T2 sequence (P35354 18-604): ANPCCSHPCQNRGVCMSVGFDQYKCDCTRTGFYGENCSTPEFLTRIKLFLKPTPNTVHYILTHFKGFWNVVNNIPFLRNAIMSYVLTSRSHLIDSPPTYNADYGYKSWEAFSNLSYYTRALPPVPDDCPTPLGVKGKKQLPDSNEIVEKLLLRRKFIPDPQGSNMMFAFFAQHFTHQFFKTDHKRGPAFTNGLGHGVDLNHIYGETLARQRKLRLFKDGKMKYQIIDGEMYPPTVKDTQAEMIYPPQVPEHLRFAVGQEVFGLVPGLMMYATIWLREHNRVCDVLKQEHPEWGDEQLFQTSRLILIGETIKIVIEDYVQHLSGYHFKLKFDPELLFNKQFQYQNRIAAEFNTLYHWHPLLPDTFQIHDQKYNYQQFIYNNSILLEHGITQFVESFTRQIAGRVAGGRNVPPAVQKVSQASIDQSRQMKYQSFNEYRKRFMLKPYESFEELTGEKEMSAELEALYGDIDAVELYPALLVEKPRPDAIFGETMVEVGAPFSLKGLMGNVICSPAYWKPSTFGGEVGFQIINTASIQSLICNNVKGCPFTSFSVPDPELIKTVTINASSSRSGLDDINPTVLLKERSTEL
Briefly: COX-2 inhibition assay (PGE2 EIA). In kind it is biochemical. The conditions noted are these: average of at least two independent experiments, triplicates; read-out: IC50 COX-2.

Another data set deals with U937 cells. Set-up: method as in PMID 19958764. Conditions: stimulated differentiated U937 cells; cited from earlier work.

Like-named read-outs stand apart in the source and are kept apart here.

A word on the IC50: it is the point on the concentration scale where inhibition reaches its midpoint. Consider `CC(C)Cc1ccc([C@@H](C)C(=O)O)cc1` [(R)-ibuprofen], for which, in the data set on COX [1], the “PGE2 formation from AA” value is on record as “only inhibited at high concentrations” and the Activity entry was “Active [60]”. In addition, the IC50 in the data set on COX [2] was approximately 10 µM.
As for `CCC(c1ccc(O)c(F)c1)C(C)c1ccc(O)c(F)c1` (centres unmarked) [Bifluranol (1), Bifluranol], in the data set on mice and rats (mice and rats, compared to DES), the anti-prostatic effects entry is listed as “comparable extent to diethylstilbestrol (DES)”. Further, the “estrogenicity, lower compared to DES” value with mice and rats is “approximately 8 fold”. In the data set on mice and rats (unlike DES), the spermatogenesis or fertility result is listed as “did not impair spermatogenesis or fertility”. Further, in the data set on COX [3], the COX isoform selectivity entry is reported as “COX-1 selective” and the outcome was Active. Moreover, the IC50 in data set [4] stood at 33 ± 7.3 µM. The IC50 on human recombinant COX-2 was more than 20 µM.
With `COc1cc(/C=C2\CCC/C(=C\c3ccc(O)c(OC)c3)C2=O)ccc1O` [Cyqualon (3), Cyqualon], in the data set with COX [3], the COX isoform selectivity result is recorded as “COX-1 selective” and the result was Active. Also, the IC50 in data set [4] is 1.5 ± 2.1 µM. Also, the IC50 at human recombinant COX-2 was more than 20 µM. The PGE2-formation entry in the data set on U937 cells is “did not prevent PGE2-formation”.
Regarding `CC(C(=O)O)c1ccc(N2Cc3ccccc3C2=O)cc1` (centres unmarked) [Indoprofen], the Activity result with COX [1] was “Active [55]”.
Regarding `CC(C(=O)O)c1cccc(C(=O)c2ccccc2)c1` (centres unmarked) [Ketoprofen], in the data set with COX [1], the Activity result is “Active [56]”.
Take `Cc1ccc(Cl)c(Nc2ccccc2C(=O)O)c1Cl` [Meclofenamic acid]: the Activity entry in the data set on COX [1] was “Active [57]”.
For `Cc1cccc(Nc2ccccc2C(=O)O)c1C` [Mefenamic acid], the Activity result in the data set on COX [1] is “Active [58]”.
As to `CC(C(=O)O)c1ccc(N2CC=CC2)c(Cl)c1` (centres unmarked) [Pirprofen], in the data set with COX [1], the Activity result was “Active [59]”.
As to `O=C(O)c1cc(/N=N/c2ccc(S(=O)(=O)Nc3ccccn3)cc2)ccc1O` [Sulfasalazin], in the data set on COX [1] (no IC50 available), the COX-inhibition entry was “Evidence for COX-inhibition”.
In the case of `CC(C(=O)O)c1ccc(C(=O)c2ccccc2)s1` (centres unmarked) [Tiaprofenic acid], in the data set on COX [1], the Activity result was “Active [55]”.
Regarding `COc1ccc(C(Cl)=C(c2ccc(OC)cc2)c2ccc(OC)cc2)cc1` [chlorotrianisene], the COX inhibition entry in the data set on COX [1] (identified by SEA) is recorded as “COX-inhibitor”.
